For 88 molecules, IC50 results are on record in ChEMBL document CHEMBL4017441, “Mitigating the inhibition of human bile salt export pump by drugs: opportunities provided by physicochemical property modulation, in silico modeling, and structural modification” (Drug Metab Dispos, 2012).

Molecules are shown by their SMILES.

In this assay the target is Bile salt export pump (Homo sapiens, UniProt O95342). It is filed as ADME.

One may read the IC50 as the concentration at which inhibition is half-maximal. `N=C(N)N1CCc2ccccc2C1` [DEBRISOQUIN]: the half-inhibitory concentration (IC50) is above 952 µM. With `O=CN(O)C(CCc1ccccc1)CS(=O)(=O)N1CCN(c2ccc(F)cc2)CC1` (stereo not drawn), the half-maximal inhibitory concentration (IC50) was below 10 µM.

For the molecule `CC(=O)Nc1ccccc1` [ACETANILIDE], the IC50 was above 1000 µM. For the molecule `CC(=O)O[C@]1(C(C)=O)CC[C@H]2[C@@H]3C=C(C)C4=CC(=O)CC[C@]4(C)[C@H]3CC[C@@]21C` [MEGESTROL ACETATE], the IC50 was below 10 µM. Under `CCCOc1ccc2nc(NC(=O)OC)[nH]c2c1` [OXIBENDAZOLE] stands above 1000 µM; under `COc1ccc2cc(C(C)CO)ccc2c1` (stereo not drawn), 97.6 to 98 µM; under `O=C1CN(/N=C/c2ccc(-c3ccc([N+](=O)[O-])cc3)o2)C(O)=N1` [DANTROLENE], 145 µM. Take `Cc1cc2cc(C(=O)NC3Cc4ccccc4N(C[C@@H](O)CO)C3=O)[nH]c2s1` (stereo partly drawn): the IC50 is below 11 µM.

For the molecule `CCC1=C(C)CN(C(=O)NCCc2ccc(S(=O)(=O)NC(=O)N[C@H]3CC[C@H](C)CC3)cc2)C1=O` [GLIMEPIRIDE], the IC50 is below 10 µM. Regarding `CCc1cc(C(N)=S)ccn1` [ETHIONAMIDE], the IC50 was above 1000 µM.

As for `Oc1ccc(Cl)c2cccnc12` [CLOXYQUIN], the IC50 was 357 µM. As for `O=C(OCC(O)CO)c1ccccc1Nc1ccnc2cc(Cl)ccc12` (stereo not drawn) [GLAFENINE], the IC50 was below 14.9 µM.

With `O=C(/C=C/c1c(C(=O)O)[nH]c2cc(Cl)cc(Cl)c12)Nc1ccccc1`, the concentration for half-maximal inhibition (IC50) was below 10 µM. As for `CCC(=N\O)/C(C)=C/c1ccc(F)cc1` [A-079], the IC50 is 26.8 µM. On to `Cc1ccc2c(c1)c(-c1ccnc3c(C)cccc13)c(C)n2CC(=O)O`, for which the concentration for half-maximal inhibition (IC50) is below 10 µM. On to `Nc1ccccc1C(=O)NCC(=O)O`, for which the 50% inhibitory concentration (IC50) is above 1000 µM. Turning to `O=C(CCCCC(=O)Nc1c(I)cc(I)c(C(=O)O)c1I)Nc1c(I)cc(I)c(C(=O)O)c1I`, the IC50 is above 970 µM. On to `O=C(O)Cc1ccccc1Nc1c(Cl)cccc1Cl` [DICLOFENAC], for which the IC50 worked out at 65 µM.

On to `O=C(O)CCCCCCCNC(=O)c1ccccc1O` [SALCAPROZIC ACID], for which the 50% inhibitory concentration (IC50) was above 751 µM. `COc1cc(NC(C)CCCN)c2ncccc2c1` (stereo not drawn) [PRIMAQUINE]: the IC50 was determined as 53.1 µM. For `CCN1C(=O)NC(c2ccccc2)C1=O` (stereo not drawn) [ETHOTOIN], the half-inhibitory concentration (IC50) is above 792 µM. As to `CC(C)(C)C(=O)Oc1ccc(S(=O)(=O)Nc2ccccc2C(=O)NCC(=O)O)cc1`, the IC50 amounted to 142 µM. For `CN1CCC(=C2c3ccccc3CC(=O)c3sccc32)CC1` [KETOTIFEN], the concentration for half-maximal inhibition (IC50) was above 429 µM.

In the case of `CN1CCN(CC/C=C2/c3ccccc3Sc3ccc(S(=O)(=O)N(C)C)cc32)CC1` [THIOTHIXENE], the IC50 was found to be 30.4 µM. As for `CCOc1ccc2nc3cc(N)ccc3c(N)c2c1` [ETHACRIDINE], the IC50 is 43.5 µM. Consider `COc1ccccc1OCC(O)COC(N)=O` (stereo not drawn) [METHOCARBAMOL], for which the IC50 was above 1000 µM. As to `Cc1ccc(CCCN[C@H](C)CO)cc1C(=O)NCC12CC3CC(CC(C3)C1)C2`, the IC50 worked out at 65.6 µM. Consider `CC(NC(C)(C)C)C(=O)c1cccc(Cl)c1` (stereo not drawn) [BUPROPION], for which the IC50 is above 1000 µM. Turning to `CCN1CCCC1CNC(=O)c1cc(S(N)(=O)=O)ccc1OC` (stereo not drawn) [SULPIRIDE], the IC50 turned out to be 276 µM. For `CC1(C)Oc2ccc(C#N)cc2[C@@H](N2CCCC2=O)[C@@H]1O` [LEVCROMAKALIM], the 50% inhibitory concentration (IC50) worked out at 353 µM. On to `Cc1ccc(Cl)c(Nc2ccccc2C(=O)O)c1Cl` [MECLOFENAMIC ACID], for which the half-inhibitory concentration (IC50) is 27.2 µM.

As to `COc1c(N2C[C@@H]3CCCN[C@@H]3C2)c(F)cc2c(=O)c(C(=O)O)cn(C3CC3)c12` [MOXIFLOXACIN], the IC50 is above 1000 µM.

With `CC(C)(C)c1cc(C(C)(C)C)c2oc(C(=O)O)cc(=O)c2c1` [TERBUCROMIL], the IC50 is below 10 µM. To `C[C@@](O)(C(=O)Nc1ccc(S(=O)(=O)c2ccc(NCCO)cc2)cc1Cl)C(F)(F)F` belongs 27.4 µM; to `Cc1cc(=O)[nH]c(=S)[nH]1` [METHYLTHIOURACIL], above 1000 µM. `N#Cc1ccc(C(c2ccc(C#N)cc2)n2cncn2)cc1` [LETROZOLE]: the IC50 amounted to 225 µM. As for `Cc1n[nH]c(C)c1Cc1sc2c(c1C(=O)N1C[C@H](O)CO1)c(=O)n(C)c(=O)n2CC(C)C`, the IC50 was 248 µM. With `C[N+](C)(C)CC(O)CC(=O)[O-]` (stereo not drawn) [CARNITINE], the IC50 is above 1000 µM. For the molecule `CC(C)(C)C(=O)CN1CC2CN(CCCNc3ccc(C#N)cc3)CC(C1)O2`, the IC50 came out at 514 µM. On to `CCOC(=O)n1ccn(C)c1=S` [CARBIMAZOLE], for which the half-inhibitory concentration (IC50) was above 1000 µM. Turning to `Nc1ccc([As](=O)(O)O)cc1`, the half-maximal inhibitory concentration (IC50) was above 1000 µM. For the molecule `Cc1cccc(C)c1NC(=O)[C@H]1CCCCN1C`, the IC50 is above 1000 µM. Consider `COc1ccc2c(c1)N(C[C@H](C)CN(C)C)c1ccccc1S2` [LEVOMEPROMAZINE], for which the half-maximal inhibitory concentration (IC50) was 127 µM. `C[C@]12CCC(=O)C=C1CC[C@@H]1[C@@H]2[C@@H](O)C[C@@]2(C)[C@H]1CC[C@]2(O)C(=O)CO` [HYDROCORTISONE]: the IC50 was determined as 252 µM.

`CCCc1c2oc(C(=O)O)cc(=O)c2cc2c(=O)cc(C(=O)O)n(CC)c12` [NEDOCROMIL]: the 50% inhibitory concentration (IC50) was above 1000 µM.

For `O=CN(O)C(CCCc1ncccn1)CS(=O)(=O)N1CCC(Oc2ccc(Cl)cn2)CC1` (stereo not drawn), the 50% inhibitory concentration (IC50) was below 10 µM. `NS(=O)(=O)c1cc(C(=O)O)cc(N2CCCC2)c1Oc1ccccc1` [PIRETANIDE]: the IC50 is above 791 µM. Under `CCCCNc1ccc(C(=O)OCCOCCOCCOCCOCCOCCOCCOCCOCCOC)cc1` [BENZONATATE] stands below 10 µM. Consider `NS(=O)(=O)c1cc2c(cc1Cl)N=C(CSCc1ccccc1)NS2(=O)=O` [BENZTHIAZIDE], for which the IC50 was 57.4 µM. Turning to `CC(Cc1ccccc1)(NC(=O)CN)c1ccccc1` (stereo not drawn) [REMACEMIDE], the IC50 worked out at 288 µM.

As for `CCCc1c2c(c(O)c3c(=O)cc(C(=O)O)oc13)CCCC2` [PROXICROMIL], the half-inhibitory concentration (IC50) was in the range of 30 to 30.5 µM. `N=C(N)N/N=C/c1c(Cl)cccc1Cl` [GUANABENZ]: the half-inhibitory concentration (IC50) came out at 344 µM.

As to `CNCCCN1c2ccccc2CCc2ccccc21` [DESIPRAMINE], the IC50 worked out at 150 µM.

Take `C#C[C@]1(O)CC[C@H]2[C@@H]3CCc4cc(O)ccc4[C@H]3CC[C@@]21C` [ETHINYL ESTRADIOL]: the IC50 is below 10 µM. Consider `CCCCCCCCCCCCc1ccc(S(=O)(=O)Nc2nncs2)cc1`, for which the half-maximal inhibitory concentration (IC50) was determined as 21 µM. For the molecule `CN(C)c1ncnc2c1ncn2C1OC(CO)C(N)C1O` (stereo not drawn), the IC50 is above 1000 µM.

`O=C1c2ccccc2CN2C(=O)c3ccccc3CN12` [DIFTALONE]: the IC50 was above 1000 µM. `O=C(CCCN1CC=C(n2c(=O)[nH]c3ccccc32)CC1)c1ccc(F)cc1` [DROPERIDOL]: the IC50 was below 10 µM.

In the case of `Cc1c(C)c2c(c(C)c1O)CCC(C)(COc1ccc(CC3SC(=O)NC3=O)cc1)O2` (stereo not drawn) [TROGLITAZONE], the half-maximal inhibitory concentration (IC50) amounted to 6.9 µM. Under `CCCN(CCC)S(=O)(=O)c1ccc(C(=O)O)cc1` [PROBENECID] stands 587 µM; under `CS(=O)(=O)Oc1ccc(OCCc2ccc(C[C@H](SCCc3ccc(O)cc3)C(=O)O)cc2)cc1`, below 13.4 µM; under `CS(=O)(=O)CCNCc1ccc(-c2ccc3ncnc(Nc4ccc(OCc5cccc(F)c5)c(Cl)c4)c3c2)o1` [LAPATINIB], below 10 µM. Under `CC(C)C(=O)N[C@@H](CS)C(=O)O` stands above 1000 µM; under `CC(Oc1ccccc1)C(=O)N[C@@H]1C(=O)N2[C@@H]1SC(C)(C)[C@@H]2C(=O)O` (stereo partly drawn) [PHENETHICILLIN], below 10 µM. Under `COc1c(OC)c(OC(C)=O)c2cc(Cl)ccc2c1OC(C)=O` [LONAPALENE] stands 14.4 µM.

Consider `CC(=O)Oc1ccc(C(c2ccc(OC(C)=O)cc2)c2ccccn2)cc1` [BISACODYL], for which the concentration for half-maximal inhibition (IC50) was determined as 56.4 µM. Regarding `Cc1ccccc1OCC(O)CO` (stereo not drawn) [MEPHENESIN], the IC50 is above 1000 µM.

Take `CCc1ccc(CCOc2ccc(CC3SC(=O)NC3=O)cc2)nc1` (stereo not drawn) [PIOGLITAZONE]: the IC50 was 0.262 µM. `C[C@](O)(C(=O)Nc1ccc(C(=O)c2ccccc2)cc1)C(F)(F)F` [ZD-6169]: the IC50 was determined as 21.4 µM. Turning to `CC(COc1ccccc1)NC(C)C(O)c1ccc(O)cc1` (stereo not drawn) [ISOXSUPRINE], the IC50 stood at 573 µM.

As for `C[C@@H]1C[C@H]2[C@@H]3CCC4=CC(=O)C=C[C@]4(C)[C@@]3(F)[C@@H](O)C[C@]2(C)[C@@]1(O)C(=O)CO` [DEXAMETHASONE], the IC50 was determined as 102 µM. For `Nc1nc(NCCN2CCOCC2)nc2nc(-c3ccco3)nn12`, the IC50 is above 1000 µM. Regarding `CS(=O)(=O)OCCCCOS(C)(=O)=O` [BUSULFAN], the IC50 is above 1000 µM. In the case of `CC(CCc1ccc(O)cc1)NCCc1ccc(O)c(O)c1` (stereo not drawn) [DOBUTAMINE], the IC50 was above 1000 µM. To `COc1ccc(Cc2nccc3cc(OC)c(OC)cc23)cc1OC` [PAPAVERINE] belongs below 10 µM; to `CCCCc1nc(Cl)c(CO)n1Cc1ccc(-c2ccccc2-c2nn[nH]n2)cc1` [LOSARTAN], below 10 µM; to `CC1(C)O[C@@H]2C[C@H]3[C@@H]4CCC5=CC(=O)CC[C@]5(C)[C@@]4(F)[C@@H](O)C[C@]3(C)[C@]2(C(=O)CCl)O1` [HALCINONIDE], below 10 µM. On to `N=C(N)NCCN1CCCCCCC1` [GUANETHIDINE], for which the IC50 was above 1000 µM. To `Cc1onc(-c2c(F)cccc2Cl)c1C(=O)N[C@@H]1C(=O)N2[C@@H]1SC(C)(C)[C@@H]2C(=O)O` [FLOXACILLIN] belongs below 10 µM. In the case of `OCc1ccccc1O[C@@H]1O[C@H](CO)[C@@H](O)[C@H](O)[C@H]1O` [SALICIN], the IC50 was above 1000 µM. Consider `N=c1nc(N2CCCCC2)cc(N)n1O`, for which the half-maximal inhibitory concentration (IC50) is above 1000 µM. Regarding `CCCCCC(C)(O)/C=C/[C@@H]1[C@@H](C/C=C\CCCC(=O)O)[C@@H](O)C[C@H]1O` (stereo partly drawn), the IC50 came to 329 µM. Under `Cc1cc2cc3c(C)cc(=O)oc3c(C)c2o1` [TRIOXSALEN] stands above 525 µM; under `CCCSc1nc(N)c2ncn([C@@H]3O[C@H](COP(=O)(O)OP(=O)(O)C(Cl)(Cl)P(=O)(O)O)[C@@H](O)[C@H]3O)c2n1`, above 1000 µM.

`CCN(CC)CCCC(C)Nc1c2ccc(Cl)cc2nc2ccc(OC)cc12` (stereo not drawn) [QUINACRINE]: the concentration for half-maximal inhibition (IC50) is 101 µM. Turning to `CCC(=O)NCC[C@@H]1CCc2ccc3c(c21)CCO3` [RAMELTEON], the 50% inhibitory concentration (IC50) fell in the range of 85 to 85.4 µM. Turning to `CCCCc1cc2ccccc2c(OCCN(C)C)n1` [DIMETHISOQUIN], the IC50 amounted to 68.7 µM. In the case of `Nc1ccc(C(=O)NCC(=O)O)cc1` [AMINOHIPPURIC ACID], the IC50 is above 1000 µM.
